Experimental data published in US20180042867A1, “METHODS OF TREATING CANCER” (Mitchell Woods Pharmaceuticals, Inc., priority 2015, published 2018).

Assays:
PANC-1 cells [1] = conditions: cited from earlier work
[2] = tested on: MDA-MB-231 breast cancer cells; assay: Intracellular lactate, targeted metabolomics (LC/MS); assay type: cell-based, human; conditions: MDA-MB-231, MNF (1 µM), 3 hours
Method: The cells were seeded on 100×20 mm tissue culture plates and maintained at 37° C. under humidified 5% CO2 in air until they reached >70% confluence. The original media was replaced with media containing 0.5 μM or 1 μM MNF and the plates were incubated for an additional 1 hour, unless otherwise indicated. After completion of incubations, the media was aspirated and the cells were washed twice with 10 ml of phosphate buffer saline (pH 7.4) (PBS). The cells were then collected in 10 ml PBS by scrapping and sedimented by centrifugation (1000 rpm, 5 min), and the supernatant discarded. The cell pellets were stored at −80° C. until analyzed. […]
The cells pellets were suspended in 20 μL water, 10 μL of 0.1 mM p-aminohippuric acid as an internal standard was added and the resulting mixture vortex mixed for 1 minute. […] The supernatant was collected and analysed using a system composed of an Agilent Technologies 1100 LC/MSD equipped with a G1322A degasser, G1312A quaternary pump, G1367A autosampler, G1316A column thermostat and G1946D mass spectrometer supplied with electrospray ionization (ESI). […] The compound of interest were monitored in the positive-ion mode for SIM at m/z 162.1 (carnitine), m/z 90.1 (lactate) and m/z 105.1 (3-hydroxybutyrate). The internal standard was monitored at m/z 195.1 (p-aminohippuric acid). […]

MDA-MD-231 cells = assay: Expression of ABC exporters in MDA-MB-231 cells; assay type: cell-based, human; conditions: incubation with MNF
Description: See, FIG. 6A. In MDA-MD-231 cells, MNF reduced the expression of P-gp and BCRP while the signal associated with MRP-1 was too faint to detect in the untreated controls as shown in FIG. 6B. As observed in the expression of cyclin D1, the expression of ABC transporters has been associated with EGFR expression and activity and nuclear translocation of PKM2. Thus, the observed effects are consistent with an MNF-associated reduction in EGFR expression and activity through it effect on glycolysis.

MCF-7 cells [3] = assay: Expression of ABC exporters in MCF-7 cells; assay type: cell-based, human; conditions: incubation with MNF
PANC-1 cells [4] = assay: Untargeted metabolomics (1D 1H NMR) of intracellular metabolome; assay type: cell-based, human; conditions: PANC-1, MNF 1 μM
Method: The cells were seeded on 100×20 mm tissue culture plates and maintained at 37° C. under humidified 5% CO2 in air until they reached >70% confluence. The original media was replaced with media containing 0.5 μM or 1 μM MNF and the plates were incubated for an additional 1 hour, unless otherwise indicated. After completion of incubations, the media was aspirated and the cells were washed twice with 10 ml of phosphate buffer saline (pH 7.4) (PBS). The cells were then collected in 10 ml PBS by scrapping and sedimented by centrifugation (1000 rpm, 5 min), and the supernatant discarded. The cell pellets were stored at −80° C. until analyzed.
The cell pellet was re-suspended in 1 ml of 80% methanol (cryogenically cold) and incubated at −80° C. for 15 minutes. This suspension was then centrifuged at 13,000×g for 10 minutes at 4° C. The supernatant was collected in an eppendorf tube and the pellet was suspended in 0.25 ml of water. The suspension was vortexed mixed for 1 minute and centrifuged at 13,000×g for 10 minutes at 4° C. The supernatant was collected and mixed with the supernatant collected in the previously step and stream dried under nitrogen. The sample was stored at −80° C. until analyzed.
Sample Preparation and NMR Analysis—Non-Targeted Metabolomics.
The Cell pellet was re-suspended in 1 ml of 80% methanol (cryogenically cold) and incubated at −80° C. for 15 minutes. This suspension was then centrifuged at 13,000×g for 10 minutes at 4° C. The supernatant was collected in an eppendorf tube and the pellet was suspended in 0.25 ml of water. The suspension was vortexed mixed for 1 minute and centrifuged at 13,000×g for 10 minutes at 4° C. The supernatant was collected and mixed with the supernatant collected in the previously step and stream dried under nitrogen. The sample was stored at −80° C. until analyzed. The samples were prepared for NMR experimentation by dissolving in 0.6 ml of 50 mM phosphate buffer (pH 7.2) in 99.8% D2O with 50 μM 3-(tetramethysilane)propionic acid-2,2,3,3-d4 (TMSP). NMR spectra were recorded on a Bruker Avance III-HD 700 MHz spectrometer equipped with a QCI-P cryoprobe and a SampleJet automated sample changer. 1D ^1H spectra were collected using excitation sculpting to remove the solvent signal. A total of 16 k data points with a spectral width of 5482.5 Hz, 8 dummy scans, and 256 scans were used to obtain each spectrum. The data was processed completely in MVAPACK.
An untargeted metabolomics approach using one-dimensional proton nuclear magnetic resonance (1D ^1H NMR) was used to examine the effect of MNF incubation (1 μM, 1 hour) on the intracellular metabolome of PANC-1 cells.

PANC-1 = assay: Proliferation in pancreatic cancer (PancCA) cell lines; assay type: cell-based, human; conditions: including PANC-1
MCF-7 cells [5] = conditions: by enhancing cytotoxicity of alkylating agents, cisplatin and melphalan; cited from earlier work

## O=C(O)C(=O)CBr [3-bromopyruvate]
PANC-1 cells [1]
  cellular survival: lowers cellular survival

## COc1ccc(C[C@@H](C)NC[C@H](O)c2cc(O)cc(O)c2)c2ccccc12 [MNF, (R,R′)-4′-methoxy-1-naphthylfenoterol]
[2]
  reduction in the intracellular concentration of lactate: ~50%
MDA-MD-231 cells
  expression of BCRP: reduced
  expression of P-gp: reduced
MCF-7 cells [3]
  expression of BCRP: significantly reduced
  expression of MRP-1: significantly reduced
  expression of P-gp: significantly reduced
PANC-1 cells [4]
  relative expression of 3-hydroxybutyrate: increase
  signal associated with carnitine: significantly upregulated
  signal associated with glycine: significantly upregulated
  signal associated with leucine: significantly upregulated
  signal associated with lysine: significantly upregulated
PANC-1 cells [4]; vs untreated cells
  signal associated with lactate: significantly reduced
PANC-1
  proliferation: significantly reduce proliferation

## O=C(O)c1nn(Cc2ccc(Cl)cc2Cl)c2ccccc12 [lonidamine]
MCF-7 cells [5]
  cellular survival: lowers cellular survival
